Source: patent US20060134693A1, “Olfactory cyclic nucleotide-gated channel cell-based assays to identify T1R and T2R taste modulators” (priority 2001, published 2006)
Peptide text beside a SMILES is read from it.

Assays:
[1] = target: T1, human sweet receptor hT1R2/hT1R3 (Homo sapiens, UniProt Q7RTX0+Q8TE23); assay: Isoproterenol-induced calcium influx in HEK-293-oCNGC cells expressing hT1R2/hT1R3; format: cell-based; settings: PTX 100 ng/ml for 4 hours; 200 nM isoproterenol; 5 mM Aspartame, 2 mM Cyclamate, 4 mM Saccharin, 0.1 mM Neotame; FIG. 15
T1 construct: host or cells: human embryonic kidney cells (earlier application U.S. Ser. No. 10/770,127)
T1 sequence (Q8TE23 20-839): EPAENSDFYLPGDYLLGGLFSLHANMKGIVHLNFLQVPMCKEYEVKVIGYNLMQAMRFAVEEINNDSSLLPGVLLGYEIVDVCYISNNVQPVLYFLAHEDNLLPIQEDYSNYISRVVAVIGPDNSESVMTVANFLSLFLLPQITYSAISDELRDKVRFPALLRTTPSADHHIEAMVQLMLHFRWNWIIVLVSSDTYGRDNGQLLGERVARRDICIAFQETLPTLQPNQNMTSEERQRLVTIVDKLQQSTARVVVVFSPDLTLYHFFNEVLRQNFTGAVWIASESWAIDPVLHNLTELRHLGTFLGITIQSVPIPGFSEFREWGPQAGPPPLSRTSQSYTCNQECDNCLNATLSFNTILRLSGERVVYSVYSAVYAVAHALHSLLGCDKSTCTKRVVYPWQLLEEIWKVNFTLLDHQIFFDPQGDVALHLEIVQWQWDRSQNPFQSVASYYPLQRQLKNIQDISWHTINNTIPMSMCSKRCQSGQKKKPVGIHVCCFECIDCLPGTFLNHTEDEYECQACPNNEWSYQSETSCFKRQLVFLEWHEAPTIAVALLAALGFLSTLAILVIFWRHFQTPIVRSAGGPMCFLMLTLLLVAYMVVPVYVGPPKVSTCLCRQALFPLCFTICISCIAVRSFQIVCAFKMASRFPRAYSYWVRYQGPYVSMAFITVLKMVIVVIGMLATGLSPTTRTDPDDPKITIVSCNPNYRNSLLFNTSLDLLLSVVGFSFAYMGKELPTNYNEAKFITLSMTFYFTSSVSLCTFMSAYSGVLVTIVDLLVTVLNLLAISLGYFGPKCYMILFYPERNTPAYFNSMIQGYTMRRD
T1 sequence (Q7RTX0 21-852): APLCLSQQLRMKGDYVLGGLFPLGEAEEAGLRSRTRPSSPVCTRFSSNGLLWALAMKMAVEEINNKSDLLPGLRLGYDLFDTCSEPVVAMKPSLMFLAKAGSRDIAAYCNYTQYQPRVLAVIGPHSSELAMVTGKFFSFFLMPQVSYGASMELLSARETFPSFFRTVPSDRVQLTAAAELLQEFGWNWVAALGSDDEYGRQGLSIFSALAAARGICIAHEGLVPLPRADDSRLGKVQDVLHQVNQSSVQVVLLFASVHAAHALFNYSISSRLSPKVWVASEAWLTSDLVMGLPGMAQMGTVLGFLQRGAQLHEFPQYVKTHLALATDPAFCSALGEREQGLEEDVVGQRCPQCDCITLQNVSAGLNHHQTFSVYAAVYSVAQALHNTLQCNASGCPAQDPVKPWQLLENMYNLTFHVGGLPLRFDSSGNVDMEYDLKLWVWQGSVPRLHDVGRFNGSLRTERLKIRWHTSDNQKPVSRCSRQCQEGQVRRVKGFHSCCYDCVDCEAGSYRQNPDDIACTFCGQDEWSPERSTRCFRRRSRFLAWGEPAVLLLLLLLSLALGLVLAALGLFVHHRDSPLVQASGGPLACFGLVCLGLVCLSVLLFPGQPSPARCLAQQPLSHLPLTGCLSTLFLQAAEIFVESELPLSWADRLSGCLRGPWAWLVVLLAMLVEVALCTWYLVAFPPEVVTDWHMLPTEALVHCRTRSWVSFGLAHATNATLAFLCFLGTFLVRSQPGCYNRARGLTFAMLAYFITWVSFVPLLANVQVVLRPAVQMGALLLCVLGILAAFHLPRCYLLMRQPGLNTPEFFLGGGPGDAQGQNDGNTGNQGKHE
Method: FIG. 13 contains the result of an experiment showing that increasing concentrations of sweeteners inhibit the isoproterenol-induced-calcium influx in HEK 293-oCNGC cells expressing the human sweet receptor hT1R2/hT1R3. Delta F/F values were normalized to the fluorescence obtained after stimulation with 200 nM isoproterenol. Each value corresponds to the mean ± SD of a triplicate determination.
Cells were left untreated (control) or treated with PTX for 4 hours at 100 ng/ml prior to the experiment. Cells were then stimulated with 200 nM isoproterenol in the presence or absence of the indicated sweeteners (5 mM Aspartame, 2 mM Cyclamate, 4 mM Saccharin and 0.1 mM Neotame).
(§1) Modulation of oCNG activity by taste receptors is measured in a cell-based assay that detects changes in intracellular calcium (as described in earlier examples). In brief, human embryonic kidney cells stably expressing the OCNC1 and are β1b subunits of oCNGC are transiently or stably transfected with T1R or T2R receptor plasmids. Transfected cells are seeded into 384-well culture plates, and functional expression is allowed to proceed for about 24 to 48 hours. The cells are then incubated with a calcium specific fluorescent dye (Fluo-4 or Fura-2, available from Molecular Probes) that provides for fast, simple and reliable fluorimetric detection of changes in calcium concentration within the cell.
An experiment was conducted to assess the effect of various sweeteners (known to activate the human T1R2/T1R3 sweet receptor) on isoproterenol-induced calcium influx in HEK-293—oCNGC cells that express the human T1R2/T1R3 sweet receptor. As shown by the results in FIG. 13, increasing concentrations of sweetener inhibits isoproterenol-induced calcium influx in these cells. (In the figure, Delta F/F values were normalized to the fluorescence obtained after stimulation with 200 nM isoproterenol and each value corresponds to the means ± SD of a triplicate determination). […]

[2] = target: T2, human T1R2/T1R3 sweet taste GPCR (Homo sapiens, UniProt Q7RTX0+Q8TE23); assay: CNG136 cell line (HEK293-derived, co-expressing human CNG channel and human T1R2/T1R3), FLIPR384 response; format: cell-based; settings: 5 mM Aspartame (saturating concentration, the normalization reference); average of 2
T2 construct: expressed in transfected cells; host or cells: CNG136, derived from HEK293
T2 sequence (Q8TE23 20-839): T1 sequence (Q8TE23 20-839)
T2 sequence (Q7RTX0 21-852): T1 sequence (Q7RTX0 21-852)
Method: (§2) Methods: […] This cell line was derived from HEK293 cells. CNG136 was tested with several sweet receptor agonists and modulators including, Compound 6542888, Compound 3069733, and Aspartame. Response to 10 uM of 6542888 and 3069733 and 5 mM Aspartame was measured using a FLIPR384 instrument (Molecular Devices) and is reported in Table I below. Data were normalized to the maximum activity obtained with a saturating concentration of Aspartame (5 mM). Compounds were also tested on control (“Parental CNG”) cells lacking the human sweet GPCR.

[3] = tested on: untransfected HEK 293-oCNGC cells; assay: Isoproterenol-induced calcium influx in untransfected HEK 293-oCNGC cells; format: cell-based, human; settings: cells not expressing hT1R2/hT1R3; increasing concentrations; 200 nM isoproterenol; FIG. 14
Method: Delta F/F valves were normalized to the fluorescence obtained after stimulation with 200 nM isoproterenol. Each value corresponds to the mean ± SD of a triplicate determination.
as §1
An experiment was conducted to confirm that the effects of the sweeteners on calcium influx requires the expression of the sweet receptor.
In FIG. 14, it is shown that increasing concentrations of the tested sweeteners had no inhibitory effect on isoproterenol-induced calcium influx in untransfected HEK 293—oCNGC cells. Again, Delta F/F values were normalized to the fluorescence obtained after stimulation with 200 nM isoproternol and each value component to the mean ± SD of a triplicate determination).

[4] = tested on: Parental CNG cells lacking the human sweet GPCR; assay: Control Parental CNG cells lacking the human sweet GPCR, FLIPR384 response; format: cell-based; settings: 5 mM Aspartame, average of 2
Method: as §2

[5] = target: T3, mouse olfactory receptor, mOREG (Mus musculus, UniProt Q920P2); assay: Calcium dye fluorescence microscopy, HEK-293 cells transfected with mOREG and human olfactory CNG channel subunits; format: cell-based; settings: CNG channel dependent and mOREG dependent, FIG. 9
T3 construct: expressed in transfected cells; host or cells: HEK-293, co-transfected with OCNC1[C458W/E581M], OCNC2 and β1b
T3 sequence (Q920P2 1-313): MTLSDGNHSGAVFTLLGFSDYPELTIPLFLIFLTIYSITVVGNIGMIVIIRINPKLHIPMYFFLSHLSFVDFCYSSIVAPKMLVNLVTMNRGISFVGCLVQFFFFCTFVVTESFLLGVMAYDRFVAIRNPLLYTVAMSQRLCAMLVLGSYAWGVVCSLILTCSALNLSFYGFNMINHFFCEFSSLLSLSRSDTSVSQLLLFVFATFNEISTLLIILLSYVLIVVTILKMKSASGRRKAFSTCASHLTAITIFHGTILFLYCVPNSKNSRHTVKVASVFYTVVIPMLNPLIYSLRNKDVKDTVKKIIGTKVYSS
Method: HEK-293 cells were transfected with OCNC1[C458W/E581FM], OCNC2, and β1band a mouse olfactory receptor, mOREG, that is activated by eugenol (Kajiya et al., 2001). Transfected cells were seeded onto multi-well plates. After 48 hours, cells were loaded with a calcium dye for one hour, then washed, and their response to eugenol stimulation was monitored by fluorescence microscopy.

[6] = tested on: human olfactory CNG channel; assay: FLIPR calcium assay, HEK-293 cells stably expressing the human olfactory CNG channel; format: cell-based; settings: calcium dye; versus parent cells; FIG. 11
Method: The HEK-293 cells that stably express the human olfactory CNG channel were seeded into FLIPR imaging plates 24 hours prior to the experiment, on plates pre-coated with matrigel. The cells were loaded with a fluorescent calcium dye for one hour, washed and transferred to a FLIPR automated fluorometric plate reader with on-board fluidics. […] Therefore, the cell-based assay is amenable to high throughput applications.

[7] = tested on: activity-enhanced human olfactory CNG channel; assay: FLIPR calcium assay, HEK-293 cells stably expressing the activity-enhanced human olfactory CNG channel; format: cell-based; settings: calcium dye; versus parent cells and wild type CNG subunits; FIG. 11
Method: The HEK-293 cells that stably express the activity-enhanced human olfactory CNG channel were seeded into FLIPR imaging plates 24 hours prior to the experiment, on plates pre-coated with matrigel. The cells were loaded with a fluorescent calcium dye for one hour, washed and transferred to a FL]PR automated fluorometric plate reader with on-board fluidics. […] Therefore, the cell-based assay is amenable to high throughput applications, especially with respect to low affinity modulators.

HEK-293-oCNGC cells = assay: Calcium influx in HEK-293-oCNGC cells on isoproterenol addition; format: cell-based, human; settings: increasing concentrations; FIG. 12
Method: FIG. 12 contains the results of an experiment showing that increasing concentrations of isoproterenol induce calcium influx in HEK 293-oCNGC cells. Delta F/F corresponds to the maximum fluorescence value obtained after stimulation minus the minimum fluorescence measured before stimulation and normalized to the minimum fluorescence measure before stimulation.
as §1
This accumulation of CAMP induces oCNGC activation, which in turn causes extracellular calcium to flow inside the cells, resulting in a net increase of intracellular calcium concentration and a parallel increase of the fluorescence signal in the cells (FIG. 12).

COC(=O)[C@H](Cc1ccccc1)NC(=O)[C@@H](N)CC(=O)O [Aspartame] (H-Asp-Phe-OMe)
inhibition of isoproterenol-induced calcium influx after PTx pretreatment [1]: prevented the inhibition | % Max Activity CNG136 [2]: 100% | effect on isoproterenol-induced calcium influx [3]: unaffected | % Activity CNG (Parental Cells) [4]: 0%

C=CCc1ccc(O)c(OC)c1 [Eugenol, eugenol]
fluorescence response [5]: elicited fluorescence increases

CC(C)NCC(O)c1ccc(O)c(O)c1 (centres unmarked) [isoproterenol]
fluorescence response [6]: increased fluorescence | fluorescence response [7]: fluorescence similar to that observed with wild type CNG subunits | calcium influx (HEK-293-oCNGC cells): in a dose-dependent manner
